The source of these data is US20220331326A1, “PHARMACEUTICAL COMPOSITION, PHARMACEUTICAL DOSAGE FORM, PROCESS FOR THEIR PREPARATION, METHODS FOR TREATING AND USES THEREOF” (Boehringer Ingelheim International GmbH, priority 2009, published 2022).

In data set [1] the test system is Zucker Diabetic Fatty (ZDF) rats. Description: oral glucose tolerance test in ZDF rats. Format: in vivo, rat. The note with it: male ZDF rats, single oral dose 30 min before 2 g/kg oral glucose; linagliptin 1 mg/kg, compound (I.3) 3 mg/kg, combination at the same doses; versus control. As for the experimental part: According to a first example an oral glucose tolerance test is performed in overnight fasted 9-weeks old male Zucker Diabetic Fatty (ZDF) rats (ZDF/Crl-Lepr^fa). A pre-dose blood sample is obtained by tail bleed. Blood glucose is measured with a glucometer, and the animals are randomized for blood glucose (n=5/group). Subsequently, the groups receive a single oral administration of either vehicle alone (0.5% aqueous hydroxyethylcellulose containing 3 mM HCl and 0.015% Polysorbat 80) or vehicle containing either the SGLT2 inhibitor or the DPPIV inhibitor or the combination of the SGLT2 inhibitor plus the DPP IV inhibitor plus. The animals receive an oral glucose load (2 g/kg) 30 min after compound administration. Blood glucose is measured in tail blood 30 min, 60 min, 90 min, 120 min, and 180 min after the glucose challenge. Glucose excursion is quantified by calculating the reactive glucose AUC. The data are presented as mean±SEM. The two-sided unpaired Student t-test is used for statistical comparison of the control group and the active groups.
“Cpd. A” is linagliptin at a dose of 1 mg/kg. Cpd. B is the compound (I.3), i.e. 1-chloro-4-(β-D-glucopyranos-1-yl)-2-[4-((S)-tetrahydrofuran-3-yloxy)-benzyl]-benzene, at a dose of 3 mg/kg. Combination A+B is the combination of linagliptin and the compound (I.3) at the same doses. P-values versus control are indicated by symbols above the bars. […]

Data set [2] in a line: compatibility with / degradation of linagliptin in the composition. In kind it is physicochemical. The note with it: combined with a glucopyranosyl-substituted benzene derivative of the formula (I), in particular the compound (I.3). As to the method: Preferably the excipients are chosen such that they are compatible with linagliptin, i.e. such that there is no or only marginal degradation of linagliptin in the pharmaceutical composition. The degradation can be tested in standard tests, for example after a 6 months storage at 40° C. and 75% relative humidity. In this context the term “marginal degradation” shall mean a chemical degradation of linagliptin of less than 5%, preferably less than 3%, even more preferably less than 2% by weight of linagliptin. The content and thus the degradation can be determined by well-known analytical methods, for example using HPLC or UV methods.

The conditions of data set [3]: metformin on its own, in the diabetic; cited from earlier work.

Take `CC#CCn1c(N2CCC[C@@H](N)C2)nc2c1c(=O)n(Cc1nc(C)c3ccccc3n1)c(=O)n2C` [Linagliptin, linagliptin]: the “reduction of glucose excursion (reactive glucose AUC) in oral glucose tolerance test” value in data set [1] was determined as 56%. For the same compound, in data set [2], the degradation of linagliptin entry is on record as “does not show or shows only marginal degradation”. `OC[C@H]1O[C@@H](c2ccc(Cl)c(Cc3ccc(O[C@H]4CCOC4)cc3)c2)[C@H](O)[C@@H](O)[C@@H]1O` [compound (I.3), 1-chloro-4-(β-D-glucopyranos-1-yl)-2-[4-((S)-tetrahydrofuran-3-yloxy)-benzyl]-benzene]: the “reduction of glucose excursion (reactive glucose AUC) in oral glucose tolerance test” value in data set [1] is listed as 51%. As to `CN(C)C(=N)N=C(N)N` [metformin], the “average improvement in the HbA1c value” in data set [3] is listed as 1.0-1.5%.
